Test results taken from US20240327421A1 (Marquette University, priority 2017, published 2024).
Entries after “also recorded” stand apart in the source; their conditions may differ.

Experiments:
[1] = molecular target: T1, Peroxisome Proliferator-Activated Receptor (PPARδ) (Homo sapiens, UniProt Q03181); assay: GeneBLAzer nuclear hormone receptor specificity assay, PPARδ; assay type: cell-based; conditions: 0.25 to 25 μM; listed as ISP358-2
T1 sequence (Q03181 211-439 limits assumed): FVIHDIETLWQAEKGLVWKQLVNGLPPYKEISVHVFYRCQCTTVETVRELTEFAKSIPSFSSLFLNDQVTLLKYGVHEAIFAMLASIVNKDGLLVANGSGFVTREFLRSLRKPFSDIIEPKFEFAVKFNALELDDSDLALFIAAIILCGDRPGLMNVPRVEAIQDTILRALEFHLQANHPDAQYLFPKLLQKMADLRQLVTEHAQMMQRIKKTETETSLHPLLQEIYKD
Experimental: (§1) Nuclear Hormone Receptor Specificity Assay. Selectivity measurements were performed using the SelectScreen™ cell-based nuclear receptor profiling service from ThermoFisher (FIG. 3A). This is a FRET-based assay that uses GeneBLAzer™ technology. It detects ligand binding to and activation of a nuclear hormone receptor of interest (ligand binding domain; LBD) that is fused to a GAL4 DNA binding domain (DBD), which upon activation induces expression of beta-lactamase. The assay has a Z′≥0.5 in agonist mode. […]

[2] = molecular target: T2, ERα (Homo sapiens, UniProt P03372); assay: Cell-based luciferase reporter assay, full length ERα, antagonist mode
T2 construct: employs a full length and native ER (comprised of an ER LBD and an ER DBD)
T2 sequence (P03372 1-595): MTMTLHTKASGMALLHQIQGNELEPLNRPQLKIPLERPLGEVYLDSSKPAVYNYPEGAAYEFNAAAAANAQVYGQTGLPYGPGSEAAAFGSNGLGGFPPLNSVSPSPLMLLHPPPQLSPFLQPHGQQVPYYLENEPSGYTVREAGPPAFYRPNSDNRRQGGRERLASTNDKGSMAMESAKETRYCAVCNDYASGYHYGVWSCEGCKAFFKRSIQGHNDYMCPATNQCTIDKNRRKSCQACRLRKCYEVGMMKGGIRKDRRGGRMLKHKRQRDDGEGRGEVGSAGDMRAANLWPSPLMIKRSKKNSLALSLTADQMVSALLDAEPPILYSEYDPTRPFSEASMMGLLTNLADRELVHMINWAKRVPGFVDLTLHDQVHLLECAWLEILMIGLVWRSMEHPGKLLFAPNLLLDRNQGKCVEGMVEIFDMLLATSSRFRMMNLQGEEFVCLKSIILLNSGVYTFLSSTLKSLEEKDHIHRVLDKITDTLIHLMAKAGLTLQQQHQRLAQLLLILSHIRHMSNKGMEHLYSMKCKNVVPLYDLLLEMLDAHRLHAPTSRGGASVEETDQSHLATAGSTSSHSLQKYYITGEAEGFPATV

[3] = molecular target: T3, Thyroid Hormone Receptor (TRβ) (Homo sapiens, UniProt P10828); assay: GeneBLAzer nuclear hormone receptor specificity assay, TRβ; assay type: cell-based; conditions: 0.25 to 25 μM; listed as ISP358-2
T3 sequence (P10828 217-461 limits assumed): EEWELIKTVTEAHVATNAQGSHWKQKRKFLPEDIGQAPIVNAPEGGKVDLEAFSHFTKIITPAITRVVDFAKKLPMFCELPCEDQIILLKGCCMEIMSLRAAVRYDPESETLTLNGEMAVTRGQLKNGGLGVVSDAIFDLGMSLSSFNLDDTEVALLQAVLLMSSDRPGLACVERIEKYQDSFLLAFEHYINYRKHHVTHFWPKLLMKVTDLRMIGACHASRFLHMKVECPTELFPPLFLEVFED

[4] = Nephelometry (aggregation / solubility)
[5] = molecular target: T4, CYP2D6 (Homo sapiens, UniProt P10635); assay: P450-Glo CYP450 inhibition, CYP2D6; assay type: in vitro ADME; conditions: highest concentration 62.6 μM; listed as ISP358-2
T4 construct: purchased Promega Corporation (Madison, WI)
T4 sequence (P10635 whole entry): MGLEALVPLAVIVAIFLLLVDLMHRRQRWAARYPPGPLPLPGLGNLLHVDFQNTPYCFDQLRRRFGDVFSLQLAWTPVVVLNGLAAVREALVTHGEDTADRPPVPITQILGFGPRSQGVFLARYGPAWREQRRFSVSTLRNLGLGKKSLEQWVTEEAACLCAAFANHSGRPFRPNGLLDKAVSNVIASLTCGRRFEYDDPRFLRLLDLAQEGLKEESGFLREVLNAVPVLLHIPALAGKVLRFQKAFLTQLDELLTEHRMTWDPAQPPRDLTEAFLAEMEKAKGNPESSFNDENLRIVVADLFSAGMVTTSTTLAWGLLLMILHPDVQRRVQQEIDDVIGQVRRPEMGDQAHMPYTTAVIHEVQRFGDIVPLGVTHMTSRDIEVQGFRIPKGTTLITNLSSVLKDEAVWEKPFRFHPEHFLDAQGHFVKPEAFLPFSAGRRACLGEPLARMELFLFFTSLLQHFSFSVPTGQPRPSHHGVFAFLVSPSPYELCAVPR
Experimental: In Vitro Druggability Assays-CYP450 Binding, hERG & Nephelometry. The P450-Glo™ Screening System from Promega Corporation (Madison, WI) was used to measure CYP450 (cytochrome P450) inhibition, as described in the kit instructions. Assays were run in 96-well white plates (Corning® 3912), and luminescence was measured on a SpectraMax M5 instrument (FIG. 6). The luminescence signal is proportional to the amount of luciferin product formed by the CYP reaction. Compounds were prepared in DMSO, then an eight-step 1:2 dilution series was made in DMSO. […] After adding the relevant Cytochrome P450 enzyme, the plate was incubated at 37° C. for 10 minutes to allow components to come to temperature. Next, the NADPH regeneration system was added to activate the reaction on a luminogenic P450-GloTM substrate, and incubated at 37° C. for 10-30 min, according to kit instructions for each CYP enzyme. The enzyme reaction was stopped by the addition of Luciferin Detection Reagent and luminescence of the plate was read in a Spectramax M5 (Molecular Devices) after a 20 min incubation at room temperature. Data were normalized to positive controls (α-naphthoflavone for CYP1A2, sulfaphenazole for CYP2C9, quinidine for CYP2D6, and ketoconazole for CYP3A4). Data analysis was with Prism software, as described above.

[6] = molecular target: T5, Progesterone Receptor (PR) (Homo sapiens, UniProt P06401); assay: GeneBLAzer nuclear hormone receptor specificity assay, PR; assay type: cell-based; conditions: 0.25 to 25 μM; listed as ISP358-2
T5 sequence (P06401 679-913 limits assumed): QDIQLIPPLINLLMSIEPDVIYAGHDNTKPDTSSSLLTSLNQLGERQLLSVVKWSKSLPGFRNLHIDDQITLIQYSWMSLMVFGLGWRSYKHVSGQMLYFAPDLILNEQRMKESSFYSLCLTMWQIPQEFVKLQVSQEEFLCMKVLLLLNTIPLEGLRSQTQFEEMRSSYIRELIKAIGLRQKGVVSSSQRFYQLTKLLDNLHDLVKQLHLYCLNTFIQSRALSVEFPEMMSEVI
Experimental: as §1

[7] = test system: MCF-7 cells; assay: MTT assay for proliferation of MCF-7 cells; assay type: cell-based; conditions: 24 h treatment, 0.001-10 μM
Experimental: FIGS. 15A-15C. MTT assay for proliferation of MCF-7 cells. Cells were seeded into 96-well plates and incubated for 24 hr before treatment was applied. […] Absorbance values were converted to cell counts using a standard growth curve.
MTT Assays. Human breast cancer cells (MCF-7) were provided by Dr. Manish Patankar (Department of Obstetrics and Gynecology, University of Wisconsin-Madison). Cells were cultured in Eagle's Minimum Essential Media (EMEM) supplemented with 10% fetal bovine serum and 0.01 mg/mL human recombinant insulin in 5% CO2 at 37° C. A seeding density of 7,000 cells per well was chosen and applied to a 96 well plate. […] Treated cells were incubated for 24 hours after which an MTT (3-(4,5-Dimethylthiazol-2-yl)-2,5-Diphenyltetrazolium Bromide) assay was performed by adding 20% MTT in EMEM solution to cach well and incubating for 4 hours. Formazan crystal metabolites were dissolved using 100% DMSO and absorbance was read at OD 570 nm as well as a reference of 650 nm using a VMax kinetic microplate reader (Molecular Devices, CA) running Softmax Pro version 6.1. Absorbances were converted to cell number using a standard growth curve.

**Q.** With `OC[C@H]1CC[C@H](c2ccc(O)cc2)CC1` [Compound 16] as the compound, how does the “agonist activity, PPARδ” value [1] read?
**A.** The value was “not an agonist; also recorded: no significant off-target activity”.

**Q.** What about the ERα antagonist activity ([2]; concentrations up to 10 μM, listed as ISP358-2) of the same compound?
**A.** The ERα antagonist activity was “No measurable antagonist activity”.

**Q.** What about the IC50 ([2]; inhibition of estradiol-induced transcription, read-out: ERα antagon. IC50) of the same compound?
**A.** Its IC50 is over 10 µM.

**Q.** And the “agonist activity, TRβ” value [3]?
**A.** Its value is “not an agonist; also recorded: no significant off-target activity”.

**Q.** And the “solubility / aggregation by nephelometry” value [4]?
**A.** Its value is “reasonably soluble”.

**Q.** And the CYP2D6 inhibition [5]?
**A.** Its CYP2D6 inhibition is “no significant inhibition”.

**Q.** And the “agonist activity, PR” value [6]?
**A.** The value was “not an agonist; also recorded: no significant off-target activity”.

**Q.** What about the “proliferation of MCF-7 cells vs untreated control” value [7] of the same compound?
**A.** Its value is “No significant changes in the growth of MCF-7 cells”.

**Q.** What about the “proliferation of MCF-7 cells vs untreated control” value ([7]; listed as ISP358-2) of the same compound?
**A.** The value was “neither ISP358-2 nor DPN showed any significant proliferation”.
